The subject of the test is LMP1 expression in Kem I cells. Kind of test: microbe, parasite or virus in culture. Type of test: cell-based, EBV. Particulars: for fold induction at 2.5 µM: human gammaherpesvirus 4, 48 h.
The mark [1] stands for this setting: read-out: Average LMP1 Fold Increase, Kem I cells, dose 2.5 uM, 48 hours, LMP1 transcript by in-well qRT-PCR, average of the two replicates.
Where [2] appears, read: read-out: Replicate 1-LMP1 Fold Increase, Kem I cells, dose 2.5 uM, 48 hours, LMP1 transcript by in-well qRT-PCR, screen replicate 1.
Where [3] appears, read: read-out: Replicate 2-LMP1 Fold Increase, Kem I cells, dose 2.5 uM, 48 hours, LMP1 transcript by in-well qRT-PCR, screen replicate 2.
The mark [4] stands for this setting: Kem I cells, dose 2.5 uM, 48 hours, LMP1 transcript by in-well qRT-PCR, average of the two replicates.
The mark [5] stands for this setting: Kem I cells, dose 2.5 uM, 48 hours, LMP1 transcript by in-well qRT-PCR, screen replicate 1.
Setting [6] is: Kem I cells, dose 2.5 uM, 48 hours, LMP1 transcript by in-well qRT-PCR, screen replicate 2.

Each structure is given as a SMILES string. Counter-ions that a name gives are not always drawn. Like-named read-outs stand apart in the source and are kept apart here.

For `Clc1ccccc1CN1CCc2sccc2C1` [Ticlopidine HCl], the fold induction at 2.5 µM is, setting by setting: under setting [1], 1.15; under setting [2], 0.52; under setting [3], 1.78.

As to `COc1ccc2cc(-c3nc(-c4ccc([S+](C)[O-])cc4)[nH]c3-c3ccncc3)ccc2c1` (stereo not drawn) [Tie2 kinase inhibitor], under setting [4], the “Average LMP1 Fold Increase” value was found to be 1.08 fold. The “Replicate 1-LMP1 Fold Increase” value under setting [5] was found to be 0.36 fold. In addition, the “Replicate 2-LMP1 Fold Increase” value under setting [6] stood at 1.81 fold.

For the compound `O=c1oc2cc(O)ccc2s1` [Tioxolone], the fold induction at 2.5 µM amounted to 0.55 under setting [1], 0.7 under setting [2] and 0.41 under setting [3].

Take `C[C@@H]1CCN(C(=O)CC#N)C[C@@H]1N(C)c1ncnc2[nH]ccc12` [Tofacitinib (CP-690550,Tasocitinib)]: the “Average LMP1 Fold Increase” value under setting [4] is 0.46 fold. Moreover, the “Replicate 1-LMP1 Fold Increase” value under setting [5] was 0.09 fold. Further, under setting [6], the “Replicate 2-LMP1 Fold Increase” value stood at 0.82 fold.

In the case of `c1ccc(CC2=NCCN2)cc1` [Tolazoline HCl], the fold induction at 2.5 µM runs as follows: under setting [1], 0.26; under setting [2], 0.26; under setting [3], 0.27.

For `Cc1c(Cl)cccc1Nc1ccccc1C(=O)O` [Tolfenamic Acid], the fold induction at 2.5 µM came to 0.15 under setting [1], 0.11 under setting [2] and 0.2 under setting [3].

For `Cc1ccccc1C(=O)Nc1ccc(C(=O)N2CCCC(O)c3cc(Cl)ccc32)c(C)c1` (stereo not drawn) [Tolvaptan], the fold induction at 2.5 µM under setting [1] was 4.67, the fold induction at 2.5 µM under setting [2] was found to be 1.11 and the fold induction at 2.5 µM under setting [3] stood at 8.24.

For `CCOC(=O)N1c2ccc(C(F)(F)F)cc2[C@@H](N(Cc2cc(C(F)(F)F)cc(C(F)(F)F)c2)C(=O)OC)C[C@H]1CC` [Torcetrapib], the fold induction at 2.5 µM under setting [1] turned out to be 0.5, the fold induction at 2.5 µM under setting [2] was 0.4 and the fold induction at 2.5 µM under setting [3] stood at 0.6.

Consider `CN(C)CCOc1ccc(/C(=C(/CCCl)c2ccccc2)c2ccccc2)cc1` [Toremifene Citrate], for which the fold induction at 2.5 µM reads like this: under setting [1], 0.54; under setting [2], 0.55; under setting [3], 0.54.

For the compound `CC(C)C[C@@H](C(=O)N[C@H](C(=O)OC1CCCC1)c1ccccc1)[C@H](O)C(=O)NO` [Tosedostat (CHR2797)], the “Average LMP1 Fold Increase” value under setting [4] worked out at 0.64 fold. Further, under setting [5], the “Replicate 1-LMP1 Fold Increase” value is 0.56 fold. Under setting [6], the “Replicate 2-LMP1 Fold Increase” value is recorded as 0.72 fold.

For `Cn1c(=O)cc(N2CCC[C@@H](N)C2)n(Cc2cc(F)ccc2C#N)c1=O` [Trelagliptin], the fold induction at 2.5 µM is, setting by setting: under setting [1], 0.63; under setting [2], 0.96; under setting [3], 0.31.

Consider `Nc1nc(N)c2nc(-c3ccccc3)c(N)nc2n1` [Triamterene], for which the fold induction at 2.5 µM under setting [1] is 0.91, the fold induction at 2.5 µM under setting [2] turned out to be 0.56 and the fold induction at 2.5 µM under setting [3] was found to be 1.26.

As to `CC(/C=C/C(=O)NO)=C\[C@@H](C)C(=O)c1ccc(N(C)C)cc1` [Trichostatin A (TSA)], under setting [4], the “Average LMP1 Fold Increase” value is 88.29 fold. Also, under setting [5], the “Replicate 1-LMP1 Fold Increase” value stood at 44.18 fold. Also, the “Replicate 2-LMP1 Fold Increase” value under setting [6] came to 132.40 fold.

On to `CCC(COC(=O)c1cc(OC)c(OC)c(OC)c1)(c1ccccc1)N(C)C` (stereo not drawn) [Trimebutine], for which the fold induction at 2.5 µM under setting [1] turned out to be 1.37, the fold induction at 2.5 µM under setting [2] was 2.11 and the fold induction at 2.5 µM under setting [3] worked out at 0.63.

As to `O=C(O[C@H]1C[C@H]2CC[C@@H](C1)[N+]21CCCC1)C(O)(c1ccccc1)c1ccccc1` [Trospium chloride], the fold induction at 2.5 µM came out at 0.35 under setting [1], 0.33 under setting [2] and 0.37 under setting [3].

`CC(C)(C)c1cc(/C=C(\C#N)C(N)=S)cc(C(C)(C)C)c1O` [Tyrphostin AG 879]: the “Average LMP1 Fold Increase” value under setting [4] came to 0.74 fold. Also, the “Replicate 1-LMP1 Fold Increase” value under setting [5] was determined as 0.53 fold. Also, the “Replicate 2-LMP1 Fold Increase” value under setting [6] turned out to be 0.95 fold.

Turning to `CCO.N#CC(=C(/N)Sc1ccccc1N)/C(C#N)=C(\N)Sc1ccccc1N` [U0126-EtOH], the “Average LMP1 Fold Increase” value worked out at 0.58 fold, the “Replicate 1-LMP1 Fold Increase” value was determined as 0.51 fold and the “Replicate 2-LMP1 Fold Increase” value worked out at 0.65 fold.

On to `O=C(c1cncc(Br)c1)N1CCC(N2CCCC2)CC1` [UNC669], for which the “Average LMP1 Fold Increase” value under setting [4] was found to be 0.50 fold. The “Replicate 1-LMP1 Fold Increase” value under setting [5] is on record as 0.75 fold. In addition, under setting [6], the “Replicate 2-LMP1 Fold Increase” value worked out at 0.25 fold.

As for `CCCCNc1ncc(-c2ccc(CN3CCOCC3)cn2)c(NC2CCC(O)CC2)n1` (stereo not drawn) [UNC2250], the “Average LMP1 Fold Increase” value under setting [4] is 0.41 fold. For the same compound, under setting [5], the “Replicate 1-LMP1 Fold Increase” value is given as 0.54 fold. For the same compound, the “Replicate 2-LMP1 Fold Increase” value under setting [6] is 0.29 fold.

For `NC(=O)c1cccc(-c2cccc(OC(=O)NC3CCCCC3)c2)c1` [URB597], the fold induction at 2.5 µM under setting [1] turned out to be 0.54, the fold induction at 2.5 µM under setting [2] stood at 0.52 and the fold induction at 2.5 µM under setting [3] was found to be 0.55.

Turning to `CS(=O)(=O)c1ccc(-c2cnc(N)c(C(=O)Nc3ccccc3)n2)cc1` [VE-821], the fold induction at 2.5 µM stood at 0.17 under setting [1], 0.2 under setting [2] and 0.14 under setting [3].

As to `CNCc1ccc(-c2cc(-c3nc(-c4ccc(S(=O)(=O)C(C)C)cc4)cnc3N)on2)cc1` [VE-822], the fold induction at 2.5 µM runs as follows: under setting [1], 4.03; under setting [2], 3.28; under setting [3], 4.78.

Turning to `Cc1cc(Nc2cc(N3CCN(C)CC3)nc(Sc3ccc(NC(=O)C4CC4)cc3)n2)n[nH]1` [VX-680 (Tozasertib, MK-0457)], under setting [4], the “Average LMP1 Fold Increase” value worked out at 0.74 fold. The “Replicate 1-LMP1 Fold Increase” value under setting [5] worked out at 0.96 fold. In addition, the “Replicate 2-LMP1 Fold Increase” value under setting [6] is listed as 0.52 fold.

With `O=c1ncn2nc(Sc3ccc(F)cc3F)ccc2c1-c1c(Cl)cccc1Cl` [VX-745], the fold induction at 2.5 µM under setting [1] stood at 0.49, the fold induction at 2.5 µM under setting [2] is 0.75 and the fold induction at 2.5 µM under setting [3] came out at 0.24.

In the case of `CCO[C@@H]1OC(=O)C[C@@H]1NC(=O)[C@@H]1CCCN1C(=O)[C@@H](NC(=O)c1ccc(N)c(Cl)c1)C(C)(C)C` [VX-765], the fold induction at 2.5 µM stood at 0.41 under setting [1], 0.45 under setting [2] and 0.37 under setting [3].

`Cc1ccc(NC(=O)C2(c3ccc4c(c3)OC(F)(F)O4)CC2)nc1-c1cccc(C(=O)O)c1` [VX-809 (Lumacaftor)]: under setting [4], the “Average LMP1 Fold Increase” value was found to be 0.87 fold. Moreover, the “Replicate 1-LMP1 Fold Increase” value under setting [5] worked out at 0.55 fold. Also, under setting [6], the “Replicate 2-LMP1 Fold Increase” value is recorded as 1.18 fold.

Turning to `COc1cc2/c(=N/c3ccc(Br)cc3F)nc[nH]c2cc1OCC1CCN(C)CC1` [Vandetanib (ZD6474)], under setting [4], the “Average LMP1 Fold Increase” value is 1.14 fold. In addition, under setting [5], the “Replicate 1-LMP1 Fold Increase” value came to 0.81 fold. The “Replicate 2-LMP1 Fold Increase” value under setting [6] is listed as 1.47 fold.

Regarding `CCc1c(C(=O)C(N)=O)c2c(OCC(=O)O)cccc2n1Cc1ccccc1` [Varespladib (LY315920)], the “Average LMP1 Fold Increase” value under setting [4] amounted to 0.52 fold. Further, under setting [5], the “Replicate 1-LMP1 Fold Increase” value is listed as 0.35 fold. In addition, the “Replicate 2-LMP1 Fold Increase” value under setting [6] is given as 0.69 fold.

Regarding `C[C@]1(c2nc3c(C(N)=O)cccc3[nH]2)CCCN1` [Veliparib (ABT-888)], the “Average LMP1 Fold Increase” value under setting [4] is recorded as 1.08 fold. Under setting [5], the “Replicate 1-LMP1 Fold Increase” value was 0.71 fold. The “Replicate 2-LMP1 Fold Increase” value under setting [6] is reported as 1.45 fold.

In the case of `CCCS(=O)(=O)Nc1ccc(F)c(C(=O)c2c[nH]c3ncc(-c4ccc(Cl)cc4)cc23)c1F` [Vemurafenib (PLX4032, RG7204)], under setting [4], the “Average LMP1 Fold Increase” value turned out to be 0.41 fold. The “Replicate 1-LMP1 Fold Increase” value under setting [5] amounted to 0.33 fold. For the same compound, under setting [6], the “Replicate 2-LMP1 Fold Increase” value came out at 0.50 fold.

Consider `N#C[C@@H]1CCCN1C(=O)CNC12CC3CC(CC(O)(C3)C1)C2` [Vildagliptin (LAF-237)], for which the “Average LMP1 Fold Increase” value under setting [4] is listed as 0.72 fold. Besides, the “Replicate 1-LMP1 Fold Increase” value under setting [5] is reported as 0.58 fold. Further, under setting [6], the “Replicate 2-LMP1 Fold Increase” value amounted to 0.87 fold.

Turning to `C[C@@H](c1ncncc1F)[C@](O)(Cn1cncn1)c1ccc(F)cc1F` [Voriconazole], the fold induction at 2.5 µM under setting [1] stood at 1.48, the fold induction at 2.5 µM under setting [2] amounted to 1.02 and the fold induction at 2.5 µM under setting [3] was determined as 1.94.

With `c1ccc(NCc2ccc(CNc3ccccn3)cc2)nc1` [WZ811], the “Average LMP1 Fold Increase” value under setting [4] worked out at 0.08 fold. In addition, the “Replicate 1-LMP1 Fold Increase” value under setting [5] is 0.08 fold. The “Replicate 2-LMP1 Fold Increase” value under setting [6] is listed as 0.08 fold.

For `C=CC(=O)Nc1cccc(Oc2nc(Nc3ccc(N4CCN(C)CC4)cc3OC)ncc2Cl)c1` [WZ4002], the “Average LMP1 Fold Increase” value under setting [4] came out at 0.90 fold. For the same compound, the “Replicate 1-LMP1 Fold Increase” value under setting [5] was 0.58 fold. The “Replicate 2-LMP1 Fold Increase” value under setting [6] amounted to 1.23 fold.

`CCC(=O)Nc1cccc(Oc2nc(Nc3ccc(N4CCN(C)CC4)cc3OC)ncc2Cl)c1` [WZ4003]: the “Average LMP1 Fold Increase” value under setting [4] is 0.72 fold. Further, under setting [5], the “Replicate 1-LMP1 Fold Increase” value stood at 0.79 fold. Under setting [6], the “Replicate 2-LMP1 Fold Increase” value was found to be 0.64 fold.

Regarding `Cc1cc(-c2ccc(CC(=O)Nc3ccc(-c4cccnc4)cc3)cc2)ccn1` [Wnt-C59 (C59)], under setting [4], the “Average LMP1 Fold Increase” value was found to be 0.98 fold. The “Replicate 1-LMP1 Fold Increase” value under setting [5] was found to be 0.60 fold. Besides, under setting [6], the “Replicate 2-LMP1 Fold Increase” value turned out to be 1.35 fold.

For `Oc1nc(-c2ccc(C(F)(F)F)cc2)nc2c1CSCC2` [XAV-939], the fold induction at 2.5 µM is, setting by setting: under setting [1], 0.73; under setting [2], 0.73; under setting [3], 0.73.

Regarding `CC(C)OC(=O)C1=CN(C(=O)c2ccc(F)c(F)c2)CC(C)(C)c2c1[nH]c1ccccc21` [XL335], the fold induction at 2.5 µM reads like this: under setting [1], 0.27; under setting [2], 0.39; under setting [3], 0.14.

For the origin of these results see patent US20230053688A1, “METHODS TO ALTER LATENCY IN EBV+ MALIGNANCIES” (Cornell University, priority 2020, published 2023).
